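Values below derive from 48-hour exposures of cells grown in 96-well plates, with endpoints linearly interpolated between the two concentrations bracketing the appropriate inhibition level. GI50 = concentration required for 50% inhibition of growth. TGI marks complete inhibition of growth.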
How the values were obtained:
Test in all cases: DTP human tumour cell line panel, 48 h
SK-MEL-5 melanoma = system: SK-MEL-5 melanoma
UACC-257 melanoma = system: UACC-257 melanoma
KM12 colon = system: KM12 colon
LOX IMVI melanoma = system: LOX IMVI melanoma
A498 renal = system: A498 renal
SNB-75 CNS = system: SNB-75 CNS
SF-268 CNS = system: SF-268 CNS
SW-620 colon = system: SW-620 colon
NCI/ADR-RES ovarian = system: NCI/ADR-RES ovarian
PC-3 prostate = system: PC-3 prostate
HS 578T breast = system: HS 578T breast
OVCAR-5 ovarian = system: OVCAR-5 ovarian
HCT-116 colon = system: HCT-116 colon
HOP-62 NSCLC = system: HOP-62 NSCLC
COLO 205 colon = system: COLO 205 colon
HOP-92 NSCLC = system: HOP-92 NSCLC
HT29 colon = system: HT29 colon
SN12C renal = system: SN12C renal
NCI-H23 lung = system: NCI-H23 lung
IGROV1 ovarian = system: IGROV1 ovarian
CAKI-1 renal = system: CAKI-1 renal
HCT-15 colon = system: HCT-15 colon
SR leukemia = system: SR leukemia
UO-31 renal = system: UO-31 renal
SK-OV-3 ovarian = system: SK-OV-3 ovarian
A549 NSCLC = system: A549 NSCLC
OVCAR-8 ovarian = system: OVCAR-8 ovarian
MDA-MB-231 breast = system: MDA-MB-231 breast
CCRF-CEM leukemia = system: CCRF-CEM leukemia
NCI-H522 lung = system: NCI-H522 lung
TK-10 renal = system: TK-10 renal
786-0 renal = system: 786-0 renal
MOLT-4 leukemia = system: MOLT-4 leukemia
M14 melanoma = system: M14 melanoma
HCC-2998 colon = system: HCC-2998 colon
UACC-62 melanoma = system: UACC-62 melanoma
SF-295 CNS = system: SF-295 CNS
ACHN renal = system: ACHN renal
HL-60(TB) leukemia = system: HL-60(TB) leukemia
RXF 393 renal = system: RXF 393 renal
DU-145 prostate = system: DU-145 prostate
BT-549 breast = system: BT-549 breast
SF-539 CNS = system: SF-539 CNS
OVCAR-3 ovarian = system: OVCAR-3 ovarian
RPMI-8226 leukemia = system: RPMI-8226 leukemia
OVCAR-4 ovarian = system: OVCAR-4 ovarian
SK-MEL-28 melanoma = system: SK-MEL-28 melanoma
NCI-H460 lung = system: NCI-H460 lung
U251 CNS = system: U251 CNS
T-47D breast = system: T-47D breast
SNB-19 CNS = system: SNB-19 CNS
MDA-MB-435 = system: MDA-MB-435
NCI-H226 lung = system: NCI-H226 lung
K-562 leukemia = system: K-562 leukemia
MALME-3M melanoma = system: MALME-3M melanoma
SK-MEL-2 melanoma = system: SK-MEL-2 melanoma
MCF7 breast = system: MCF7 breast

CC(CO)Nc1cc(-c2[nH]c3cccnc3c2-c2ccc(F)cc2)ccn1 (centres undefined)
GI50 (SK-MEL-5 melanoma): 10.3 µM | TGI (SK-MEL-5 melanoma): > 25 µM | GI50 (UACC-257 melanoma): > 25 µM | TGI (UACC-257 melanoma): > 25 µM | GI50 (KM12 colon): 19.1 µM | TGI (KM12 colon): > 25 µM | GI50 (LOX IMVI melanoma): 13.7 µM | TGI (LOX IMVI melanoma): > 25 µM | GI50 (A498 renal): 4.36 µM | TGI (A498 renal): 25 µM | GI50 (SNB-75 CNS): 14.8 µM | TGI (SNB-75 CNS): > 25 µM | GI50 (SF-268 CNS): 16.7 µM | TGI (SF-268 CNS): > 25 µM | GI50 (SW-620 colon): 20.3 µM | TGI (SW-620 colon): > 25 µM | GI50 (NCI/ADR-RES ovarian): > 25 µM | TGI (NCI/ADR-RES ovarian): > 25 µM | GI50 (PC-3 prostate): 21.5 µM | TGI (PC-3 prostate): > 25 µM | GI50 (HS 578T breast): 16.8 µM | TGI (HS 578T breast): > 25 µM | GI50 (OVCAR-5 ovarian): 22.8 µM | TGI (OVCAR-5 ovarian): > 25 µM | GI50 (HCT-116 colon): 13.4 µM | TGI (HCT-116 colon): > 25 µM | GI50 (HOP-62 NSCLC): > 25 µM | TGI (HOP-62 NSCLC): > 25 µM | GI50 (COLO 205 colon): 13.8 µM | TGI (COLO 205 colon): > 25 µM | GI50 (HOP-92 NSCLC): 2.74 µM | TGI (HOP-92 NSCLC): > 25 µM | GI50 (HT29 colon): 9.77 µM | TGI (HT29 colon): > 25 µM | GI50 (SN12C renal): 15.1 µM | TGI (SN12C renal): > 25 µM | GI50 (NCI-H23 lung): > 25 µM | TGI (NCI-H23 lung): > 25 µM | GI50 (IGROV1 ovarian): 6.77 µM | TGI (IGROV1 ovarian): > 25 µM | GI50 (CAKI-1 renal): 8.23 µM | TGI (CAKI-1 renal): > 25 µM | GI50 (HCT-15 colon): 10.4 µM | TGI (HCT-15 colon): > 25 µM | GI50 (SR leukemia): 17 µM | TGI (SR leukemia): > 25 µM | GI50 (UO-31 renal): 3.89 µM | TGI (UO-31 renal): > 25 µM | GI50 (SK-OV-3 ovarian): 15 µM | TGI (SK-OV-3 ovarian): > 25 µM | GI50 (A549 NSCLC): 8.47 µM | TGI (A549 NSCLC): > 25 µM | GI50 (OVCAR-8 ovarian): 15.7 µM | TGI (OVCAR-8 ovarian): > 25 µM | GI50 (MDA-MB-231 breast): 19.3 µM | TGI (MDA-MB-231 breast): > 25 µM | GI50 (CCRF-CEM leukemia): > 25 µM | TGI (CCRF-CEM leukemia): > 25 µM | GI50 (NCI-H522 lung): > 25 µM | TGI (NCI-H522 lung): > 25 µM | GI50 (TK-10 renal): 6.86 µM | TGI (TK-10 renal): > 25 µM | GI50 (786-0 renal): 18.6 µM | TGI (786-0 renal): > 25 µM | GI50 (MOLT-4 leukemia): > 25 µM | TGI (MOLT-4 leukemia): > 25 µM | GI50 (M14 melanoma): > 25 µM | TGI (M14 melanoma): > 25 µM | GI50 (HCC-2998 colon): > 25 µM | TGI (HCC-2998 colon): > 25 µM | GI50 (UACC-62 melanoma): 11.4 µM | TGI (UACC-62 melanoma): > 25 µM | GI50 (SF-295 CNS): > 25 µM | TGI (SF-295 CNS): > 25 µM | GI50 (ACHN renal): 3.99 µM | TGI (ACHN renal): > 25 µM | GI50 (HL-60(TB) leukemia): > 25 µM | TGI (HL-60(TB) leukemia): > 25 µM | GI50 (RXF 393 renal): 12.5 µM | TGI (RXF 393 renal): > 25 µM | GI50 (DU-145 prostate): 17.6 µM | TGI (DU-145 prostate): > 25 µM | GI50 (BT-549 breast): 16.1 µM | TGI (BT-549 breast): > 25 µM | GI50 (SF-539 CNS): > 25 µM | TGI (SF-539 CNS): > 25 µM | GI50 (OVCAR-3 ovarian): 16.8 µM | TGI (OVCAR-3 ovarian): > 25 µM | GI50 (RPMI-8226 leukemia): 17 µM | TGI (RPMI-8226 leukemia): > 25 µM | GI50 (OVCAR-4 ovarian): > 25 µM | TGI (OVCAR-4 ovarian): > 25 µM | GI50 (SK-MEL-28 melanoma): > 25 µM | TGI (SK-MEL-28 melanoma): > 25 µM | GI50 (NCI-H460 lung): 8.16 µM | TGI (NCI-H460 lung): > 25 µM | GI50 (U251 CNS): 15.4 µM | TGI (U251 CNS): > 25 µM | GI50 (T-47D breast): 17.1 µM | TGI (T-47D breast): > 25 µM | GI50 (SNB-19 CNS): > 21.6 µM | TGI (SNB-19 CNS): > 25 µM | GI50 (MDA-MB-435): > 22.4 µM | TGI (MDA-MB-435): > 25 µM | GI50 (NCI-H226 lung): > 23.8 µM | TGI (NCI-H226 lung): > 25 µM | GI50 (K-562 leukemia): 23.4 µM | TGI (K-562 leukemia): > 25 µM | GI50 (MALME-3M melanoma): 16.9 µM | TGI (MALME-3M melanoma): > 25 µM | GI50 (SK-MEL-2 melanoma): > 25 µM | TGI (SK-MEL-2 melanoma): > 25 µM | GI50 (MCF7 breast): 9.36 µM | TGI (MCF7 breast): > 25 µM
